The term EC50 denotes the concentration at which the effect is half-maximal.

Like-named read-outs stand apart in the source and are kept apart here. Some results are limits rather than exact numbers.

From patent US9682940B2, “Indazole derivatives useful as CB-1 inverse agonists” (Janssen Pharmaceutica NV, priority 2015, dated 2017) come the findings set out here.

The conditions of data set [1]: DIO mice, 30 mg/kg daily.
Data set [2] is described as follows: Mouse Fast PK/BBB. Type of data set: in vivo, Male C57bl/6j mice. The settings on record: oral; for concentration at 4 hr / concentration at 1 hr: male, C57bl/6j. As to the method:
Male C57bl/6j mice were ordered from Charles River at 22-25 g and housed 3 per cage. They were fed standard chow (Purina 5001).
Male C57bl/6j mice were dosed with test compounds at 20 mg/kg or 30 mg/kg. Plasma was collected via retro-orbital bleeding at 1 hr and 4 hrs after dosing. Whole brain without cerebellum was collected at 4 hrs after dosing. Wet brain weight was recorded before freezing. Brains were homogenized in saline and sent for analysis for determination of concentration of test compound.

Data set [3] deals with Human CB1R (Cannabanoid receptor 1) (Homo sapiens (Human), UniProt P21554). In words: CB-1 in vitro cAMP (HTRF) assay in HEK-293 cells. The format is cell-based. As to conditions: HEK-293 cells stably transfected with human CB1R, 250 nM Forskolin, mean where tested more than once, read-out: CB-1 (HEK_cAMP) EC50. An outline of the steps: (§1)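 HEK-293 cells stably expressing human CB1 or CB2 plated overnight, then tested in HBSS/5 mM HEPES/0.1% BSA with 0.5 mM IBMX and forskolin (1.5 μM working dilution). Intracellular cAMP quantified by competitive HTRF immunoassay (d2-cAMP, cryptate anti-cAMP) against a cAMP standard curve; compounds as 1/3 serial dilutions from 10 mM DMSO stocks.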
Human CB1R (Cannabanoid receptor 1), sequence (P21554 whole entry): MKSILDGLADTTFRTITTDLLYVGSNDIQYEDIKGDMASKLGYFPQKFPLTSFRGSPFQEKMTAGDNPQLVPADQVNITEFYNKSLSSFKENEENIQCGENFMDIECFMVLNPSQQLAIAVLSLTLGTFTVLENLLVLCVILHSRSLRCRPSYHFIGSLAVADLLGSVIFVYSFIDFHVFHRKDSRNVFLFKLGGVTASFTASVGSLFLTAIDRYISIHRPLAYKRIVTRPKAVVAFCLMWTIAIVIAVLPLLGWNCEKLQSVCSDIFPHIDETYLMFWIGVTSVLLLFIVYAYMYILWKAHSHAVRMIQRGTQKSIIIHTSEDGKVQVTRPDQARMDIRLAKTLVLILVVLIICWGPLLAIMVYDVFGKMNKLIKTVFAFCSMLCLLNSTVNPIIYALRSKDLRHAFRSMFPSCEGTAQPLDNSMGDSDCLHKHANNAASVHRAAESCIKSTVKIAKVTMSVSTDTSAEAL
For orientation: In TR-FRET formats the signal depends on donor and acceptor labels being close together.

In data set [4] the target is Human CB2R (Cannabanoid receptor 2) (Homo sapiens (Human), UniProt P34972). In words: CB-2 in vitro cAMP (HTRF) assay in HEK-293 cells. Type of data set: cell-based. As to conditions: HEK-293 cells stably transfected with human CB2R, 250 nM Forskolin, mean where tested more than once, read-out: CB-2 (HEK_cAMP) EC50. An outline of the steps:
as §1

Data set [5] can be described thus: Mouse Fast PK/BBB. The format is in vivo, Male C57bl/6j mice. As to conditions: male, C57bl/6j, brain, oral, Dose 30 mg/kg, read-out: BRAIN Mean Conc. (ng/mL) ± Std. Dev.
Where [6] appears, read: brain, Dose 30 mg/kg, Time 4 hr, read-out: BRAIN Mean Conc. (ng/mL) ± Std. Dev.
Setting [7] is: plasma, Dose 30 mg/kg, Time 1 hr, read-out: PLASMA Mean Conc. (ng/mL) ± Std. Dev.
The mark [8] stands for this setting: plasma, Dose 30 mg/kg, Time 4 hr, read-out: PLASMA Mean Conc. (ng/mL) ± Std. Dev.

Human CB2R (Cannabanoid receptor 2), sequence (P34972 whole entry): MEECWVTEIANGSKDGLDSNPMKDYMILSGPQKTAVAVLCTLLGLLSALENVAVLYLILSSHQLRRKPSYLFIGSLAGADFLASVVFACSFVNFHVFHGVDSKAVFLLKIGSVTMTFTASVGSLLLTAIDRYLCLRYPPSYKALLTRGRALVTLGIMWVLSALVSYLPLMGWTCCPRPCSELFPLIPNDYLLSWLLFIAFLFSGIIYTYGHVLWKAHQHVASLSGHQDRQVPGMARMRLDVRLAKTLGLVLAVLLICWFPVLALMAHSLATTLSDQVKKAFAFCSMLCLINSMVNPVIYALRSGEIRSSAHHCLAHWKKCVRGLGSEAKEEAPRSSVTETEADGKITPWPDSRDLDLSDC

For `O=S(=O)(N1CCC(c2n[nH]c3ccc(C(c4ccc(Cl)cc4)c4ccc(Cl)cc4)cc23)CC1)C(F)(F)F` [Compound 17, 5-(bis(4-chlorophenyl)methyl)-3-(1-(trifluoromethylsulfonyl)piperidin-4-yl)-1H-indazole], the “Fed Blood Glucose (Std Err)” value is 174 (9) mg/dL in data set [1] (Day 0) and 150 (7) mg/dL in data set [1] (Day 4). In addition, the “Mean Body Weight (in Grams (Std Err))” value in data set [1] (Day 0) is 42.3 (1.0) Grams; in data set [1] (Day 1), 40.2 (1.1) Grams; in data set [1] (Day 2), 38.3 (1.0) Grams; in data set [1] (Day 3), 37.2 (1.1) Grams; in data set [1] (Day 4) it was 36.3 (1.0) Grams. In addition, the “Mean Daily Food Intake (in Grams (Std Err))” value is reported as 0.8 (0.3) Grams in data set [1] (Day 1), 0.3 (0.1) Grams in data set [1] (Day 2), 0.5 (0.1) Grams in data set [1] (Day 3) and 0.8 (0.1) Grams in data set [1] (Day 4). In addition, in data set [1] (day 5, 2 hours after dose), the “Plasma Insulin (Std Err)” value is on record as 1.24 (0.28) ng/mL. Besides, the “BRAIN Mean Conc. (ng/mL) ± Std. Dev” value was found to be 51.8 ± 16.6 ng/mL in data set [2] (Dose 20 mg/kg, Time 1 hr) and 103.2 ± 10.8 ng/mL in data set [2] (Dose 20 mg/kg, Time 4 hr). For the same compound, the “PLASMA Mean Conc. (ng/mL) ± Std. Dev” value was determined as 4478.2 ± 1576.9 ng/mL in data set [2] (Dose 20 mg/kg, Time 1 hr) and 3444.4 ± 1058.9 ng/mL in data set [2] (Dose 20 mg/kg, Time 4 hr). In data set [3], the EC50 was determined as 6 nM.
Regarding `O=S(=O)(c1cccc(O)c1)N1CCC(c2c3cc(C(c4ccc(Cl)cc4)c4ccc(Cl)cc4)ccc3nn2C2CC2)CC1` [Compound 151, 3-(4-(5-(bis(4-chlorophenyl)methyl)-2-cyclopropyl-2H-indazol-3-yl)piperidin-1-ylsulfonyl)phenol], the concentration at 4 hr in data set [2] (setting [6]) stood at 31.4 ± 13.4 ng/mL; in data set [2] (setting [8]) it was 884 ± 584 ng/mL. In addition, the results for the concentration at 1 hr in data set [2] (setting [7]) and in data set [5] were 2740 ± 160 ng/mL and 41.8 ± 15.7 ng/mL, respectively. Further, the figures for the 50% effective concentration (EC50) in data set [4] and in data set [3] were more than 10000 nM and 6 nM, respectively.
`NC(=O)c1cc(S(=O)(=O)N2CCC(c3c4cc(C(c5ccc(Cl)cc5)c5ccc(Cl)cc5)ccc4nn3C3CC3)CC2)ccc1Cl` [Compound 169, 5-(4-(5-(bis(4-chlorophenyl)methyl)-2-cyclopropyl-2H-indazol-3-yl)piperidin-1-ylsulfonyl)-2-chlorobenzamide]: the concentration at 4 hr is 54.8 ± 14.5 ng/mL in data set [2] (setting [6]) and 2310 ± 554 ng/mL in data set [2] (setting [8]). In addition, the concentration at 1 hr stood at 2460 ± 427 ng/mL in data set [2] (setting [7]) and 29.4 ± 3.9 ng/mL in data set [5]. Moreover, the values for the EC50 in data set [4] and in data set [3] were more than 10000 nM and 17 nM, respectively.
Turning to `O=C(O)c1cccc(CN2CCC(c3nn(C4CC4)c4ccc(C(c5ccc(Cl)cc5)c5ccc(Cl)cc5)cc34)CC2)c1` [Compound 207], the “BRAIN Mean Conc. (ng/mL) ± Std. Dev” value in data set [2] (Dose 30 mg/kg, Time 1 hr) turned out to be 516 ± 44.2 ng/mL; in data set [2] (Dose 30 mg/kg, Time 4 hr), 1180 ± 115 ng/mL. Moreover, the “PLASMA Mean Conc. (ng/mL) ± Std. Dev” value came to 7373 ± 867 ng/mL in data set [2] (Dose 30 mg/kg, Time 1 hr) and 4317 ± 856 ng/mL in data set [2] (Dose 30 mg/kg, Time 4 hr). In addition, the concentration for a half-maximal effect (EC50) in data set [4] came to 9700 nM; in data set [3], 9 nM.
Take `O=C(O)c1ccc([C@@H](c2ccc(Cl)cc2)c2ccc3[nH]nc(C4CCN(S(=O)(=O)C(F)(F)F)CC4)c3c2)cc1` [Compound 232]: the “BRAIN Mean Conc. (ng/mL) ± Std. Dev (ng/mL)” value in data set [2] (Dose 30 mg/kg, Time 1 hr) is listed as “BLOQ ± NA”; in data set [2] (Dose 30 mg/kg, Time 4 hr), “BLOQ ± NA”. Further, the “PLASMA Mean Conc. (ng/mL) ± Std. Dev” value is listed as 1763 ± 474 ng/mL in data set [2] (Dose 30 mg/kg, Time 1 hr) and 196 ± 88.0 ng/mL in data set [2] (Dose 30 mg/kg, Time 4 hr). The EC50 was more than 10000 nM in data set [4] and 26 nM in data set [3].
On to `O=C(O)c1ccc([C@@H](c2ccc(Cl)cc2)c2ccc3[nH]nc(N4CCN(S(=O)(=O)C(F)(F)F)CC4)c3c2)cc1` [Compound 234], for which the “BRAIN Mean Conc. (ng/mL) ± Std. Dev” value came to 11.2 ± 3.95 ng/mL in data set [2] (Dose 30 mg/kg, Time 1 hr) and 8.31 ± 2.31 ng/mL in data set [2] (Dose 30 mg/kg, Time 4 hr). Also, the “PLASMA Mean Conc. (ng/mL) ± Std. Dev” value turned out to be 8693 ± 499 ng/mL in data set [2] (Dose 30 mg/kg, Time 1 hr) and 979 ± 376 ng/mL in data set [2] (Dose 30 mg/kg, Time 4 hr). Also, the EC50 in data set [4] was more than 10000 nM; in data set [3], 16 nM.
